The values below come from patent publication US9402846B2, “Combination of inhibitor of B-Raf and inhibitor of AKT in the treatment of cancer” (Novartis AG, priority 2009, dated 2016).

The term IC50 denotes the concentration needed to halve the response being measured.

What all share (format): cell-based
For one experiment, the system named is 12R5-3. Put plainly: Cell growth inhibition assay (Cell Titer Glo, 3 days). The settings on record: Homo sapiens; 12R5-3, melanoma, Compound A resistant clone; BRAF_V600E, KRAS WT; mean ± std; read-out: IC50 Single Agent. On the procedure: (§1) Human colon tumor lines, Colo205, DLD1, HCC2998, HCT15, HCT8, HT29, KM-12, LS1034, LS174T, NCI-H508, RKO, SW1417, SW1463, SW480, SW837 and T84, and human melanoma line A375 were from ATCC. A375PF11 was derived from A375, 12R5-1, 12R5-3, 12R8-1, 12R8-3, 16R5-2, 16R6-3 and 16R6-4 are single cell clones derived from mixed populations of A375PF11 cells that were selected to grow in Compound A to concentrations of 1200 and 1600 nM. All lines were cultured in RPMI 1640 medium containing 10% fetal bovine serum (FBS).
(§2) All cells were cultured for a minimum of 72 hours prior to cell plating. Cells were assayed in a 96-well tissue culture plate (NUNC 136102) of RPMI medium containing 10% FBS for all cells at 1,000 cells per well. Approximately 24 hours after plating, cells were exposed to ten, three-fold serial dilutions of compound or the combination of the two agents at a constant molar to molar ratio of 1:10 Compound A to Compound B in RPMI media containing 10% FBS. Cells were incubated in the presence of compounds for 3 days. ATP levels were determined by adding Cell Titer Glo® (Promega) according to the manufacturer's protocol. Briefly, Cell Titer Glo® was added each plate, incubated for 30 minutes then luminescent signal was read on the SpectraMax L plate reader with a 0.5 sec integration time.
(§3) Inhibition of cell growth was estimated after treatment with compound or combination of compounds for three days and comparing the signal to cells treated with vehicle (DMSO). Cell growth was calculated relative to vehicle (DMSO) treated control wells. […]

The subject of the next experiment is 12R8-3. Described as above. The settings on record: Homo sapiens; 12R8-3, melanoma, Compound A resistant clone; BRAF_V600E, KRAS WT; mean ± std; read-out: IC50 Single Agent. On the procedure: as §1, §2, §3
The test system of the next experiment is 16R6-3. The description is as above. The settings on record: Homo sapiens; 16R6-3, melanoma, Compound A resistant clone; BRAF_V600E, KRAS WT; mean ± std; read-out: IC50 Single Agent. On the procedure: as §1, §2, §3
For another experiment, the system named is A375PF11. The experiment is described as above. The settings on record: Homo sapiens, A375P-F11, melanoma, BRAF_V600E, KRAS WT, mean ± std, read-out: IC50 Single Agent. On the procedure:
as §1, §2, §3

In the next experiment the test system is Colo205. The description is as above. The settings on record: Homo sapiens, COLO 205; Colo205, colon; BRAF V600E, KRAS WT, PIK3CA WT; mean ± std; read-out: IC50 Single Agent. How it is done:
as §1, §2, §3

In the next experiment the test system is DLD1. The experiment is described as above. The settings on record: Homo sapiens, DLD-1; DLD1, colon; BRAF WT, KRAS G13D, PIK3CA E545K, D549N; mean ± std; read-out: IC50 Single Agent. On the procedure: as §1, §2, §3
A further experiment has as its system HCT8. The description is as above. The settings on record: Homo sapiens, HCT-8; HCT8, colon; BRAF WT, KRAS G13D, PIK3CA E545K; mean ± std; read-out: IC50 Single Agent. How it is done: as §1, §2, §3
For the next experiment, the system named is LS1034. The description is as above. The settings on record: Homo sapiens, LS-1034; LS1034, colon; BRAF WT, KRAS A146T, PIK3CA WT; mean ± std; read-out: IC50 Single Agent. On the procedure: as §1, §2, §3
The subject of another experiment is LS174T. The experiment is described as above. The settings on record: Homo sapiens, colon, BRAF WT, KRAS G12D, PIK3CA H1047R, mean ± std, read-out: IC50 Single Agent. On the procedure: as §1, §2, §3
The subject of another experiment is SW1463. The experiment is described as above. The settings on record: Homo sapiens; SW1463, colon; BRAF WT, KRAS G12C, PIK3CA WT; mean ± std; read-out: IC50 Single Agent. On the procedure: as §1, §2, §3
Another experiment concerns SW480. Described as above. The settings on record: Homo sapiens; SW480, colon; BRAF WT, KRAS G12C, PIK3CA WT; mean ± std; read-out: IC50 Single Agent. How it is done:
as §1, §2, §3

The next experiment has as its system SW837. Described as above. The settings on record: Homo sapiens; SW837, colon; BRAF WT, KRAS G12C, PIK3CA WT; mean ± std; read-out: IC50 Single Agent. How it is done:
as §1, §2, §3

The next experiment deals with T84. The experiment is described as above. The settings on record: Homo sapiens; T84, colon; BRAF WT, KRAS G13D, PIK3CA E542K; mean ± std; read-out: IC50 Single Agent. How it is done: as §1, §2, §3
In experiment [1] the test system is four colon cell lines with BRAF V600E mutation. Description: Cell growth inhibition assay (Cell Titer Glo, 3 days), summary over lines. The settings on record: Homo sapiens; span over the four colon cell lines with BRAF V600E mutation; single agent. On the procedure: Human colon tumor lines, Colo205, DLD1, HCC2998, HCT15, HCT8, HT29, KM-12, LS1034, LS174T, NCI-H508, RKO, SW1417, SW1463, SW480, SW837 and T84, and human melanoma line A375 were from ATCC.
All cells were cultured for a minimum of 72 hours prior to cell plating. […] Cells were incubated in the presence of compounds for 3 days. ATP levels were determined by adding Cell Titer Glo® (Promega) according to the manufacturer's protocol. Briefly, Cell Titer Glo® was added each plate, incubated for 30 minutes then luminescent signal was read on the SpectraMax L plate reader with a 0.5 sec integration time.
Inhibition of cell growth was estimated after treatment with compound or combination of compounds for three days and comparing the signal to cells treated with vehicle (DMSO). Cell growth was calculated relative to vehicle (DMSO) treated control wells.
Combination effects on potency were evaluated using Combination Index (CI) which was calculated with the back-interpolated IC50 values and the mutually non-exclusive equation derived by Chou and Talalay (1): CI=Da/IC50(a)+Db/IC50(b)+(Da×Db)/(IC50(a)×IC50(b))
In general, a CI value <0.9, between 0.9 and 1.1, or >1.1 indicates synergy, additivity and antagonism, respectively. In general, the smaller the CI number, the greater is the strength of synergy.
EOHSA values are defined as increases in improvement (here, in ‘percentage points’ (ppts) difference) produced by the combination over the best single agent at its component dose level for the combination. For single agent and combination treatments, cells were exposed to compounds at a fixed-dose-ratio, and dose response curves were fit to the experimental data and analyzed using regression models. At specified total dose levels of IC50 along the dose response curve, the dose combination (corresponding to IC50) was determined for making EOHSA statistical inferences.
In general terms: Cellular ATP, detected with luciferase, serves as a proxy for viable cell number.

For `Cn1ncc(Cl)c1-c1cc(C(=O)N[C@H](CN)Cc2ccc(F)c(F)c2)oc1Cl` [Compound B, N-{(1S)-2-amino-1-[(3,4-difluorophenyl)methyl]ethyl}-5-chloro-4-(4-chloro-1-methyl-1H-pyrazol-5-yl)-2-furancarboxamide], the IC50 in the experiment on 12R5-3 is greater than 10 µM; with 12R8-3, greater than 10 µM; in the experiment on 16R6-3, greater than 10 µM; with A375PF11, greater than 10 µM; with Colo205, 0.908 ± 0.605 µM; in the experiment on DLD1, greater than 10 µM. Besides, the half-maximal inhibitory concentration (IC50) in the experiment on HCT8 is 0.527 ± 0.036 µM; in the experiment on LS1034, 6.39 ± 3.55 µM; in the experiment with LS174T, 3.75 ± 0.945 µM; in the experiment with SW1463, 5.23 ± 7.4 µM; with SW480, 5.62 ± 1.85 µM; in the experiment on SW837 it was greater than 10 µM. Besides, the IC50 in the experiment on T84 was greater than 10 µM; in experiment [1] it was 0.29 to 2.59 µM.

On to `CC(C)(C)c1nc(-c2cccc(NS(=O)(=O)c3c(F)cccc3F)c2F)c(-c2ccnc(N)n2)s1` [Compound A, N-{3-[5-(2-Amino-4-pyrimidinyl)-2-(1,1-dimethylethyl)-1,3-thiazol-4-yl]-2-fluorophenyl}-2,6-difluorobenzenesulfonamide], for which the IC50 with 12R5-3 was greater than 10 µM; in the experiment with 12R8-3, greater than 10 µM; in the experiment with 16R6-3, greater than 10 µM; with A375PF11, 0.063 µM; with Colo205 it was 0.018 ± 0.003 µM; with DLD1, greater than 10 µM. Besides, the half-inhibitory concentration (IC50) with HCT8 was greater than 10 µM; in the experiment on LS1034, greater than 10 µM; in the experiment with LS174T, greater than 10 µM; in the experiment on SW1463 it was greater than 10 µM; in the experiment on SW480 it was greater than 10 µM; in the experiment with SW837, 5.44 ± 7.69 µM. Further, the IC50 in the experiment on T84 is greater than 10 µM; in experiment [1] it was 0.018 to 3.32 µM.
